Tests used:
EGFR kinase = EGFR kinase (Homo sapiens, UniProt P00533); experiment: Enzymatic experiment on EGFR (HTRF kinEASE-TK); assay type: biochemical; settings: ATP 1.65 μM; read-out: Kinase IC50 (nM) in vitro EGFR
Method: (§1) Enzymatic Experiment on EGFR/ErbB2
(§2) Firstly, preparing 1× reaction buffer required for the kinase, 5× Enzymatic buffer (HEPES 20 mM pH7.0, NaN3 0.1%, BSA 0.05%, sodium orthovanadate 0.5 mM) in the HTRF kinEASE-TK kit was diluted to 1 time with deionized water, 50 nM Supplement Enzymatic buffer (SEB reagent), 1 mM MnCl2, 5 mM MgCl2 and 1 mM DTT were added. Secondly, preparing 5× compound, 10 mM test compound stock solution was diluted in multiple steps with DMSO in a 96-well compound plate to prepare 100× compound as initial concentration, which was then used as the first concentration to perform a 3-fold gradient dilution with DMSO to obtain 10 concentrations. Afterwards, 1 μl gradient dilution was added to 19 μl 1× reaction buffer to prepare 5× compound for use. Then 2 μl 5× compound was transferred from the 96 well plate into a 384-well plate. To the compound-free control wells was added with 2 μl the following liquid: 19 μl 1× reaction buffer with addition of 1 μl DMSO. To the blank control wells was added 2 μl 250 mM EDTA. The third step was enzymatic reaction, the kinase, substrate (TK Substrate-biotin) and ATP were formulated into 2.5× enzyme/substrate mixture and 2.5×ATP solution using 1× reaction buffer respectively. The final concentration of ErbB2 kinase was 0.06 ng/μl, the final concentration of ATP was 4 μM; the final concentration of EGFR kinase was 0.06 units/μl, the final concentration of ATP was 1.65 μM; 4 μl 2.5× enzyme/substrate mixture was added to a 384-well plate, which was incubated at room temperature for 5 minutes; 4 μl 2.5×ATP solution was added to each well and the mixture was allowed to react for 30 minutes at room temperature. The fourth step was termination of the reaction, HTRF Detection buffer was used to prepare a mixture of 2×TK Antibody-Eu(K) and Sa-XL665, the amount of TK Antibody-Eu(K) was 5 μl per well. After the enzymatic reaction was performed for 30 minutes, 10 μl of the above liquid was added to the 384-well plate and the mixture was allowed to react at room temperature for 1 hour. The data was measured on EnVision™, the laser of 337 nm wavelength was selected as the excitation light, RFU665 nM and RFU620 nM were measured, and […]/RFU620 nM×10000 was used as the final data for analysis.

ErbB2 kinase = ErbB2 kinase (Homo sapiens, UniProt P04626); experiment: Enzymatic experiment on ErbB2 (HTRF kinEASE-TK); assay type: biochemical; settings: ATP 4 μM; read-out: Kinase IC50 (nM) in vitro ErbB2
Method: as §1, §2

BT-474 = experiment: Proliferation inhibition assay in vitro, BT-474 (CellTiter-Glo); assay type: cell-based; settings: Homo sapiens, 72 hours, read-out: IC50(nM) cell BT-474
Method: (§3) Proliferation Inhibition Assay In Vitro of Cell Lines
(§4) 1. Cell culture and inoculation: on the first day of the experiment, normal cultured cells were taken in the exponential growth phase, the cells were dispersed by digesting, then the cell density was adjusted to 8.8×10^4 cells/mL for BT-474 and 6.6×10^4 cells/mL for N87, 90 μl of which were inoculated to each well in a 96-well cell culture plate; after inoculation, the microplate was placed at condition of 37° C., 5% CO2 overnight. 2. Dosing to cells: on the second day of the experiment, the microplate was taken out from incubator, […], of 10× compound was separately added to each well of the microplate, 2 duplicated wells were set for each concentration, 9 dosing concentrations were set for each compound. According to different cell lines, the initial concentration of each compound was different. Upon completion of addition, the microplate was placed at condition of 37° C., 5% CO2 for 72 hours. 3. Data acquisition: the microplate was taken out from the incubator and allowed to stand at room temperature to equilibrate for 30 minutes. 100 μl CellTiter-Glo® Luminescent Cell Viability Assay reaction solution which had been equilibrated at room temperature was added to each well and the microplate was shaken at 1300 rpm for 2 minutes at room temperature. The microplate was centrifuged at 2000 rpm for 1 minute in a HERAEUS Multifuge X1R and then allowed to equilibrate at room temperature for 10 minutes. The […] signal was measured on EnVision™.

N87 = experiment: Proliferation inhibition assay in vitro, N87 (CellTiter-Glo); assay type: cell-based; settings: Homo sapiens; 72 hours; read-out: IC50(nM) cell N87
Method: as §3, §4

Chain of ErbB2 kinase (P04626 23-1255): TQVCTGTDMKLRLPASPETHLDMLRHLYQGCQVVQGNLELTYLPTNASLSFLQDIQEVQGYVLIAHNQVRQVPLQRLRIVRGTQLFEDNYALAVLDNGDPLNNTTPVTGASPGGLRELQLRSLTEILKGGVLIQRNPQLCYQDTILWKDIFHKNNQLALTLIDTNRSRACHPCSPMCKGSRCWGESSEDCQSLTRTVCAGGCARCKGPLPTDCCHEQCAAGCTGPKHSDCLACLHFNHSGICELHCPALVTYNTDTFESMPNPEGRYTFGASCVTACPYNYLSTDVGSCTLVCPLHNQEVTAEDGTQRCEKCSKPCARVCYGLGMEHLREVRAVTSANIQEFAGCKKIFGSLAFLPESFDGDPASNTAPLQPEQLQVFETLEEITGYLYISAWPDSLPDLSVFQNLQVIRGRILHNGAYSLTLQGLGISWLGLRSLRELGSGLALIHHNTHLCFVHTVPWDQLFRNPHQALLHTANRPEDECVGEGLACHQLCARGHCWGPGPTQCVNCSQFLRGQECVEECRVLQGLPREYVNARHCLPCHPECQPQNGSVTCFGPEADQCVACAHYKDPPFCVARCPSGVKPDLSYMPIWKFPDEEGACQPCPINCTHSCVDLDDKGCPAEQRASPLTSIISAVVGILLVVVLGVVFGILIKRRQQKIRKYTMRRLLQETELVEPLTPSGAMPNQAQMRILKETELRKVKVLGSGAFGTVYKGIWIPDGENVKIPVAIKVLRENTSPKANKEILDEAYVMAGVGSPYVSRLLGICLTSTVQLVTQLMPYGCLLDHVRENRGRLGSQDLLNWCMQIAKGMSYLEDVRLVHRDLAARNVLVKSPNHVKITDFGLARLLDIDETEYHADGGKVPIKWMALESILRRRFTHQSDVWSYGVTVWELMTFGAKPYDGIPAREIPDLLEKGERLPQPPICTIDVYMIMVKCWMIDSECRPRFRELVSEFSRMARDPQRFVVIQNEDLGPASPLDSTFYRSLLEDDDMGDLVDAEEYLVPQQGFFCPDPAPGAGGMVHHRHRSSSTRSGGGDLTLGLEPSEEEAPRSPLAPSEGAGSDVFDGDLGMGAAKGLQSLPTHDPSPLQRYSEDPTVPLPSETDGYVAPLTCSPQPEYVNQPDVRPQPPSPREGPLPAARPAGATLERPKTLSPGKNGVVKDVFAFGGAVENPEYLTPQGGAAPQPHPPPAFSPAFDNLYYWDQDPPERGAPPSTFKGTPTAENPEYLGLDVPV
Chain of EGFR kinase (P00533 25-1210): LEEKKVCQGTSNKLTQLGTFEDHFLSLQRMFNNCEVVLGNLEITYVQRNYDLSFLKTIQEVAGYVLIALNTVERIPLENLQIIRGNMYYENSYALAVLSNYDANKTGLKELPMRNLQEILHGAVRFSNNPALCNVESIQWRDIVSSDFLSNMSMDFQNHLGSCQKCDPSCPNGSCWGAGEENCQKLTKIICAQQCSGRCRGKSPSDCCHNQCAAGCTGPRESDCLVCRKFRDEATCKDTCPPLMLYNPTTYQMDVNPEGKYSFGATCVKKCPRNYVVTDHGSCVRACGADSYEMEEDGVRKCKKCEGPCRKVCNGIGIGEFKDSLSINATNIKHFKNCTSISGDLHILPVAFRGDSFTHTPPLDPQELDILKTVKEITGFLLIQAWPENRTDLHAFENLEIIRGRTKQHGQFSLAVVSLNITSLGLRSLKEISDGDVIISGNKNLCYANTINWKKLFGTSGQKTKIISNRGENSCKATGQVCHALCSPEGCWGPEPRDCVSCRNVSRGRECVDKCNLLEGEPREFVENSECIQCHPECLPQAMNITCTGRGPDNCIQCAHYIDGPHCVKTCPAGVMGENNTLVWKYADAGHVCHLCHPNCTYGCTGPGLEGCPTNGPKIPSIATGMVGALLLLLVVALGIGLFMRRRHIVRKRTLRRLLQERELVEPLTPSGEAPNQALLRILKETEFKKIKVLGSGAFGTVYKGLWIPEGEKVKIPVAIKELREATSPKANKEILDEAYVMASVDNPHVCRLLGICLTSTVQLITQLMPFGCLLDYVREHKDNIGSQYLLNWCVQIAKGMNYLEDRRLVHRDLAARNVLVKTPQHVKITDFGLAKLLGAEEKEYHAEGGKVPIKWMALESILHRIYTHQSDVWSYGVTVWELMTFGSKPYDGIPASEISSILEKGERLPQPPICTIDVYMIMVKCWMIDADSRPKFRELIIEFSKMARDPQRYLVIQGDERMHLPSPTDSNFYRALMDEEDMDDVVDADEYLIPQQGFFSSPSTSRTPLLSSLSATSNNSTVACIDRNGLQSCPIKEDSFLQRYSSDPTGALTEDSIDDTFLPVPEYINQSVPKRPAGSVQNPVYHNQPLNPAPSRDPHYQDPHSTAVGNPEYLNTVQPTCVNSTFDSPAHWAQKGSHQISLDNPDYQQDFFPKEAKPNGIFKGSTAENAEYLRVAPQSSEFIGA

IC50 (EGFR kinase) [nM] | IC50 (ErbB2 kinase) [nM] | IC50 (BT-474) [nM] | Compound | IC50 (N87) [nM]
44.7 | 6 | 48.9 | Cc1cc(Nc2ncnc3ccc(-c4ccc(CN5CCN(C)CC5)o4)cc23)ccc1Oc1cc2nncn2cn1 [Embodiment 61] | 35.4
164 | 8.1 | 45 | Cc1cc(Nc2ncnc3ccc(NC4=N[C@H](C)CO4)cc23)ccc1Oc1cc2nncn2cn1 [Embodiment 7, (R)—N^4-(4-([1,2,4]triazolo[4,3-c]pyrimidin-7-yloxy)-3-methylphenyl)-N^6-(4-methyl-4,5-dihydrooxazol-2-yl)quinazoline-4,6-diamine] | 71
5.4 | 2.2 | 38.7 | Cc1cc(Nc2ncnc3ccc(-c4cccc(CNCCS(C)(=O)=O)c4)cc23)ccc1Oc1cc2nncn2cn1 [Embodiment 68] | 52
370 | 6.4 | 32.8 | C=CC(=O)Nc1ccc(-c2ccc3ncnc(Nc4ccc(Oc5cc6nncn6cn5)c(C)c4)c3c2)cn1 [Embodiment 54, N-(5-(4-((4-([1,2,4]triazolo[4,3-c]pyrimidin-7-yloxy)-3-methylphenyl)amino)quinazolin-6-yl)pyridin-2-yl)acrylamide] | 150
57.9 | 3.58 | 5.9 | C=CC(=O)NC/C=C/c1ccc2ncnc(Nc3ccc(Oc4cc5nncn5cn4)c(C)c3)c2c1 [Embodiment 53, (E)-N-(3-(4-((4-([1,2,4]triazolo[4,3-c]pyrimidin-7-yloxy)-3-methylphenyl)amino)quinazolin-6-yl)allyl)acrylamide] | 6.2
15.6 | 1.1 | 108 | Cc1cc(Nc2ncnc3ccc(-c4ccc(CO)o4)cc23)ccc1Oc1cc2nncn2cn1 [Embodiment 60, (5-(4-((4-([1,2,4]triazolo[4,3-c]pyrimidin-7-yloxy)-3-methylphenyl)amino)quinazolin-6-yl)furan-2-yl)methanol] | 23.4
26.9 | 2.76 | 38.8 | Cc1cc(Nc2ncnc3ccc(NC4=N[C@@H](C(C)C)CO4)cc23)ccc1Oc1cc2nncn2cn1 [Embodiment 91, (S)—N^4-(4-([1,2,4]triazolo[4,3-c]pyrimidin-7-yloxy)-3-methylphenyl)-N^6-(4-isopropyl-4,5-dihydrooxazol-2-yl)quinazolin-4,6-diamine] | 76.8
6.5 | 1.9 | 15.3 | Cc1cc(Nc2ncnc3ccc(NC4=NC5(CCCC5)CO4)cc23)ccc1Oc1cc2nncn2cn1 [Embodiment 87] | 25.3
9.4 | 1.3 | 42.2 | Cc1cc(Nc2ncnc3ccc(NC4=NC5(CO4)CC(F)(F)C5)cc23)ccc1Oc1cc2nncn2cn1 [Embodiment 48, N^4-(4-([1,2,4]triazolo[4,3-c]pyrimidin-7-yloxy)-3-methylphenyl)-N^6-(2,2-difluoro-7-oxa-5-azaspiro[3.4]oct-5-en-6-yl)quinazoline-4,6-diamine] | 64
157 | 3.2 | 177 | Cc1cc(NC(=O)Nc2ccc3ncnc(Nc4ccc(Oc5cc6nncn6cn5)c(C)c4)c3c2)no1 [Embodiment 67, 1-(4-((4-([1,2,4]triazolo[4,3-c]pyrimidin-7-yloxy)-3-methylphenyl)amino)quinazolin-6-yl)-3-(5-methylisoxazol-3-yl)urea] | 264
206 | 5.4 | 352 | Cc1cc(Nc2ncnc3ccc(NC(=O)C4CC(Br)=NO4)cc23)ccc1Oc1cc2nncn2cn1 (centres unmarked) [Embodiment 58, N-(4-((4-([1,2,4]triazolo[4,3-c]pyrimidin-7-yloxy)-3-methylphenyl)amino)quinazolin-6-yl)-3-bromo-4,5-dihydroisoxazol-5-carboxamide] | 192
6.6 | 5.6 | 8 | C=C(F)C(=O)Nc1cc2c(Nc3ccc(Oc4cc5nncn5cn4)c(C)c3)ncnc2cc1OCC [Embodiment 127, N-(4-((4-([1,2,4]triazolo[4,3-c]pyrimidin-7-yloxy)-3-methylphenyl)amino)-7-ethoxyquinazolin-6-yl)-2-fluoroacrylamide] | 30.7
115 | 1.7 | 35.2 | COCC(=O)NC/C=C/c1ccc2ncnc(Nc3ccc(Oc4cc5nncn5cn4)c(C)c3)c2c1 [Embodiment 14, 2-methoxy-N-((E)-3-(4-(3-methyl-4-([1,2,4]triazolo[4,3-c]pyrimidin-7-yloxy)anilino)-6-quinazolinyl)allyl)acetamide] | 94.1
15.9 | 1 | 28.4 | C=CC(=O)Nc1cc(-c2ccc3ncnc(Nc4ccc(Oc5cc6nncn6cn5)c(C)c4)c3c2)ccn1 [Embodiment 55, N-(4-(4-((4-([1,2,4]triazolo[4,3-c]pyrimidin-7-yloxy)-3-methylphenyl)amino)quinazolin-6-yl)pyridin-2-yl)acrylamide] | 122
19.2 | 1.34 | 9 | C=CC(=O)Nc1cccc(-c2ccc3ncnc(Nc4ccc(Oc5cc6nncn6cn5)c(C)c4)c3c2)c1 [Embodiment 75, N-(3-(4-((4-([1,2,4]triazolo[4,3-c]pyrimidin-7-yloxy)-3-methylphenyl)amino)quinazolin-6-yl)phenyl)acrylamide] | 15
499 | 53.3 | 984 | Cc1cc(Nc2ncnc3ccc(NC4=NCC5(CCN(C(=O)OC(C)(C)C)CC5)O4)cc23)ccc1Oc1cc2nncn2cn1 [Embodiment 25, tert-butyl 2-((4-((4-([1,2,4]triazolo[4,3-c]pyrimidin-7-yloxy)-3-methylphenyl)amino)quinazolin-6-yl)amino)-1-oxa-3,8-diazaspiro[4.5]dec-2-en-8-carboxylate] | 464
43.5 | 2.2 | 140 | Cc1cc(Nc2ncnc3ccc(-c4ccco4)cc23)ccc1Oc1cc2nncn2cn1 [Embodiment 21, N-(4-([1,2,4]triazolo[4,3-c]pyrimidin-7-yloxy)-3-methylphenyl)-6-(furan-2-yl)-quinazolin-4-amine] | 73.8
26 | 1.2 | 22.9 | Cc1cc(Nc2ncnc3ccc(-c4ccc(CN(C)CCS(C)(=O)=O)o4)cc23)ccc1Oc1cc2nncn2cn1 [Embodiment 105] | 17.3
34.9 | 4.21 | 139 | Cc1cc(Nc2ncnc3ccc(NC(=O)Nc4cc(C)n(C)n4)cc23)ccc1Oc1cc2nncn2cn1 [Embodiment 73, 1-(4-((4-([1,2,4]triazolo[4,3-c]pyrimidin-7-yloxy)-3-methylphenyl)amino)quinazolin-6-yl)-3-(1,5-dimethyl-1H-pyrazol-3-yl)urea] | 162
8.2 | 2.1 | 55.6 | COCC(=O)Nc1cccc(-c2ccc3ncnc(Nc4ccc(Oc5cc6nncn6cn5)c(C)c4)c3c2)c1 [Embodiment 34, N-(3-(4-((4-([1,2,4]triazolo[4,3-c]pyrimidin-7-yloxy)-3-methylphenyl)amino)quinazoline-6-yl)phenyl)-2-methoxyacetamide] | 46.3

Source: patent US10828305B2 (SHANGHAI PHARMACEUTICALS HOLDING CO., LTD., priority 2016, dated 2020)
